SMILES strings stand for the structures.

Data on two compounds can be found in ChEMBL document CHEMBL2073780, “The antiprogestatin drug RU 486 potentiates doxorubicin cytotoxicity in multidrug resistant cells through inhibition of P-glycoprotein function” (FEBS Lett, 1994).

Common to all, as to assay type: functional, cell-based
Series [1] concerns the target Multidrug resistance protein 1a (Rattus norvegicus) (UniProt Q6PSM0). In words: TP_TRANSPORTER: increase in Doxorubicin intracellular accumulation (Doxorubicin: 10 ug/mL, Progesterone: 10 uM) in RHC1 cells.
Series [2] shares this target. Put plainly: TP_TRANSPORTER: increase in Doxorubicin intracellular accumulation (Doxorubicin: 10 ug/mL, RU486: 10 uM) in RHC1 cells.
The target in series [3] is ATP-dependent translocase ABCB1 (Homo sapiens, UniProt P08183). Put plainly: TP_TRANSPORTER: increase in Doxorubicin intracellular accumulation (Doxorubicin: 10 ug/mL, RU486: 10 uM) in K562 R7 cells. The settings on record: k562/r7, 10 µM.
ATP-dependent translocase ABCB1, sequence (P08183 whole entry): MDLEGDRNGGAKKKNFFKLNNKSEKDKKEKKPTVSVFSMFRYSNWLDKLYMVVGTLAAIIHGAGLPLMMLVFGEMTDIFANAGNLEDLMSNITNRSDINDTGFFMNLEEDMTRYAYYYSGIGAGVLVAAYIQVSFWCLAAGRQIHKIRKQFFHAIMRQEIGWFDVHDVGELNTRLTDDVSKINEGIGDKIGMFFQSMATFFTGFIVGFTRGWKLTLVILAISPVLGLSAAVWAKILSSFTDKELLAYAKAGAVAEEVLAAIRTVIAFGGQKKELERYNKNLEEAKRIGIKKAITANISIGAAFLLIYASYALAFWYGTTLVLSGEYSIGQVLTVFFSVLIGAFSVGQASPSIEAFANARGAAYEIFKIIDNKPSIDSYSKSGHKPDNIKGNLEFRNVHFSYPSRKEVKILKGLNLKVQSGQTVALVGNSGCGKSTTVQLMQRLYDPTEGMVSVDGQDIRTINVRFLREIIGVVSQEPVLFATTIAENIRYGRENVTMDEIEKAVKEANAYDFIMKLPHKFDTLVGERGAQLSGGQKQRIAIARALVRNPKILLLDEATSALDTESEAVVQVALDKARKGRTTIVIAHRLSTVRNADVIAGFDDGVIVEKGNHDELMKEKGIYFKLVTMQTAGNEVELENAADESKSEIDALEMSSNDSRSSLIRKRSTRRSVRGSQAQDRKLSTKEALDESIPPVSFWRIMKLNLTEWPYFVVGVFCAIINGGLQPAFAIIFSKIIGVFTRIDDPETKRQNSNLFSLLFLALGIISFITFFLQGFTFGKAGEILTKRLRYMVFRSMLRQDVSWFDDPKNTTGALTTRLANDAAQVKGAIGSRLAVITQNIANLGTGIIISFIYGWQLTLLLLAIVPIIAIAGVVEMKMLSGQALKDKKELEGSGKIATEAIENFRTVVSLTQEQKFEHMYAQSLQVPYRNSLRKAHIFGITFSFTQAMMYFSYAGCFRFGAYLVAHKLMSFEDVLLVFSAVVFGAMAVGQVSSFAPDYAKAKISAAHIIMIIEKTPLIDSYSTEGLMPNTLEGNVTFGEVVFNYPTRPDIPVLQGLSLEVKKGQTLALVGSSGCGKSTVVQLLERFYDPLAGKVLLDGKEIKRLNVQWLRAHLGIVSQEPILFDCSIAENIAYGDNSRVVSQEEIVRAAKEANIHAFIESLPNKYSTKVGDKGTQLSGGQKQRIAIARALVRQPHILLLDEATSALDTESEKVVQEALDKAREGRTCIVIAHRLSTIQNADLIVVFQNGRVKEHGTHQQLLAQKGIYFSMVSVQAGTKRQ

Multidrug resistance protein 1a (Rattus norvegicus), sequence (Q6PSM0 as listed by the source): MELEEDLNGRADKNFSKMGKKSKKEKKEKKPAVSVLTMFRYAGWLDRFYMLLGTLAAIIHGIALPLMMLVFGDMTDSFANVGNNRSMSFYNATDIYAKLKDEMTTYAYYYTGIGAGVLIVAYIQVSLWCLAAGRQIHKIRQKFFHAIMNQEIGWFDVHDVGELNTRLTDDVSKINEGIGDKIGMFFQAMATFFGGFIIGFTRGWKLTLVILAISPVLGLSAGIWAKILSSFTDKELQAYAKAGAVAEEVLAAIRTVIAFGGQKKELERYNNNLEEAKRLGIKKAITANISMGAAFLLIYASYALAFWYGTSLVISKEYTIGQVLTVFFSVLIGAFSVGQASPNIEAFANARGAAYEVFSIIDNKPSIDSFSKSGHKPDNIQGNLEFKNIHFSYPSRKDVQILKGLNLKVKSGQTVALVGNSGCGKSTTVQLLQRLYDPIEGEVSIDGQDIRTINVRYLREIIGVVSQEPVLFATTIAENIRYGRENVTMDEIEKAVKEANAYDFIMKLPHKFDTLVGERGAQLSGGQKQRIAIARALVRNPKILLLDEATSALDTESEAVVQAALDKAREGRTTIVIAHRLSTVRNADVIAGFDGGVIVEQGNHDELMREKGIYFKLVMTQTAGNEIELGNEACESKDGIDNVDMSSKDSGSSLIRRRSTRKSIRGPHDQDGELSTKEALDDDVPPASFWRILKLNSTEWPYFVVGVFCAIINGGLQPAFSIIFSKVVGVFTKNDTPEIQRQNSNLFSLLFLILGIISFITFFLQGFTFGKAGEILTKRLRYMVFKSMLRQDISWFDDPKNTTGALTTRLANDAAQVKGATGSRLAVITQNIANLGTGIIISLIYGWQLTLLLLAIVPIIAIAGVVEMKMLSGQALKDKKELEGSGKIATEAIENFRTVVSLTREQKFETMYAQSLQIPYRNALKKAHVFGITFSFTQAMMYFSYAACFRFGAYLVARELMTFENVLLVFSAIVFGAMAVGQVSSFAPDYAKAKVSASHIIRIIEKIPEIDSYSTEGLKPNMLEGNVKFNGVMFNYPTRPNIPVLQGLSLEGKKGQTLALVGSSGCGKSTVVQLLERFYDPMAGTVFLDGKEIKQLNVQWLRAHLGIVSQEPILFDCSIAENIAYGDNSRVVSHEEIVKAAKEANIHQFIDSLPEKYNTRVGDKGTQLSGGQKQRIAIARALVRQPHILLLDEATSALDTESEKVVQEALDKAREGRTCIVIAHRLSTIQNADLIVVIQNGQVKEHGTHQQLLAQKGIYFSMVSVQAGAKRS

As for `CC(=O)[C@H]1CC[C@H]2[C@@H]3CCC4=CC(=O)CC[C@]4(C)[C@H]3CC[C@]12C`, in series [1], the Activity result is “inhibitor [+]”. With `CC#C[C@]1(O)CC[C@H]2[C@@H]3CCC4=CC(=O)CCC4=C3[C@@H](c3ccc(N(C)C)cc3)C[C@@]21C` [MIFEPRISTONE], the Activity result in series [2] and in series [3] was “inhibitor [+]” throughout.
